Test results taken from ChEMBL document CHEMBL1681651, “A broad spectrum anticancer nucleoside with selective toxicity against human colon cells in vitro” (2011).

Assays:
Format in all cases: functional
A498 = assay: Growth inhibition of human A498 cells assessed as cell growth at 1 uM after 48 hrs by SRB assay; settings: A498, 48 h, read-out: Activity
NCI/ADR-RES = assay: Growth inhibition of human NCI/ADR-RES cells assessed as cell growth at 1 uM after 48 hrs by SRB assay; settings: read-out: Activity
HOP-62 = assay: Growth inhibition of human HOP62 cells after 48 hrs by […] growth inhibition assay; settings: HOP-62, 48 h
NCI-H322M = assay: Growth inhibition of human NCI-H322M cells after 48 hrs by […] growth inhibition assay
Malme-3M = assay: Growth inhibition of human MALME-3M cells after 48 hrs by […] growth inhibition assay
M14 [1] = assay: Growth inhibition of human M14 cells after 48 hrs by […] growth inhibition assay; settings: M14, 48 h
SF-295 = assay: Growth inhibition of human SF295 cells after 48 hrs by […] growth inhibition assay; settings: SF-295, 48 h
SNB-75 = assay: Growth inhibition of human SNB75 cells after 48 hrs by […] growth inhibition assay; settings: SNB-75, 48 h
OVCAR-5 [2] = assay: Growth inhibition of human OVCAR5 cells after 48 hrs by […] growth inhibition assay; settings: OVCAR-5, 48 h
OVCAR-8 = assay: Growth inhibition of human OVCAR8 cells after 48 hrs by […] growth inhibition assay; settings: OVCAR-8, 48 h
SK-OV-3 = assay: Growth inhibition of human SKOV3 cells after 48 hrs by […] growth inhibition assay; settings: SK-OV-3, 48 h
MDA-MB-468 = assay: Growth inhibition of human MDA-MB-468 cells after 48 hrs by […] growth inhibition assay; settings: MDA-MB-468, 48 h
A549 = assay: Growth inhibition of human A549 cells assessed as cell growth at 0.1 uM after 48 hrs by SRB assay; settings: A549, 48 h, read-out: Activity
IGROV-1 = assay: Growth inhibition of human IGROV1 cells assessed as cell growth at 0.1 uM after 48 hrs by SRB assay; settings: IGROV-1, 48 h, read-out: Activity
OVCAR-3 = assay: Growth inhibition of human OVCAR3 cells assessed as cell growth at 10 uM after 48 hrs by SRB assay; settings: OVCAR-3, 48 h, read-out: Activity
MDA-MB-231 = assay: Growth inhibition of human MDA-MB-231 cells assessed as cell growth at 10 uM after 48 hrs by SRB assay; settings: MDA-MB-231, 48 h, read-out: Activity
HCT-15 = assay: Growth inhibition of human HCT15 cells assessed as cell growth at 100 uM after 48 hrs by SRB assay; settings: HCT-15, 48 h, read-out: Activity
SNB-19 = assay: Growth inhibition of human SNB19 cells assessed as cell growth at 100 uM after 48 hrs by SRB assay; settings: SNB-19, 48 h, read-out: Activity
U-251 = assay: Growth inhibition of human U251 cells assessed as cell growth at 100 uM after 48 hrs by SRB assay; settings: U-251, 48 h, read-out: Activity
OVCAR-5 [3] = assay: Growth inhibition of human OVCAR5 cells assessed as cell growth at 100 uM after 48 hrs by SRB assay; settings: OVCAR-5, 48 h, read-out: Activity
MDA-MB-435 = assay: Growth inhibition of human MDA-MB-435 cells assessed as cell growth at 100 uM after 48 hrs by SRB assay; settings: MDA-MB-435, 48 h, read-out: Activity
HCC 2998 = assay: Growth inhibition of human HCC2998 cells assessed as cell growth at 1 mM after 48 hrs by SRB assay; settings: HCC 2998, 48 h, read-out: Activity
SK-MEL-5 = assay: Growth inhibition of human SK-MEL-5 cells assessed as cell growth at 1 mM after 48 hrs by SRB assay; settings: SK-MEL-5, 48 h, read-out: Activity
UO-31 = assay: Growth inhibition of human UO31 cells assessed as cell growth at 1 mM after 48 hrs by SRB assay; settings: UO-31, 48 h, read-out: Activity
CCRF-CEM = assay: Growth inhibition of human CCRF-CEM cells assessed as cell growth at 1 uM after 48 hrs by SRB assay; settings: read-out: Activity
NCI-H460 = assay: Growth inhibition of human NCI-H460 cells assessed as cell growth at 1 uM after 48 hrs by SRB assay; settings: NCI-H460, 48 h, read-out: Activity
HT-29 = assay: Growth inhibition of human HT-29 cells assessed as cell growth at 1 uM after 48 hrs by SRB assay; settings: HT-29, 48 h, read-out: Activity
M14 [4] = assay: Growth inhibition of human M14 cells assessed as cell growth at 1 uM after 48 hrs by SRB assay; settings: M14, 48 h, read-out: Activity
SR = assay: Growth inhibition of human SR cells assessed as cell growth at 10 uM after 48 hrs by SRB assay; settings: read-out: Activity
[5] = read-out: LC50 (the source's name)
[6] = read-out: pLC50 (the source's name) (converted)

## CNC(=O)NC[C@H]1O[C@@H](n2cnc3c(NC(=O)Nc4ccccc4)ncnc32)[C@H](O[Si](C)(C)C(C)(C)C)[C@@H]1O[Si](C)(C)C(C)(C)C
A498
  growth at 1 µM: 97%
NCI/ADR-RES
  growth at 1 µM: 109%
HOP-62; read-out: GI50
  GI50: 4.98 µM
HOP-62; [5]
  CC50: 48 µM
HOP-62; read-out: TGI
  TGI: 17.1 µM
HOP-62; read-out: pGI50 (converted)
  GI50: 5.01 µM
HOP-62; [6]
  CC50: 47.9 µM
HOP-62; read-out: pTGI (converted)
  TGI: 17 µM
NCI-H322M; read-out: GI50
  GI50: 6.86 µM
NCI-H322M; [5]
  CC50: > 100 µM
NCI-H322M; read-out: TGI
  TGI: > 100 µM
NCI-H322M; read-out: pGI50 (converted)
  GI50: 6.92 µM
NCI-H322M; [6]
  CC50: > 100 µM
NCI-H322M; read-out: pTGI
  TGI: > 100 µM
Malme-3M; read-out: GI50
  GI50: 2.98 µM
Malme-3M; read-out: LC50
  LC50 (concentration killing 50% of cells): > 100 µM
Malme-3M; read-out: TGI
  TGI: 9.84 µM
Malme-3M; read-out: pGI50 (converted)
  GI50: 2.95 µM
Malme-3M; read-out: pLC50 (converted)
  LC50 (concentration killing 50% of cells): > 100 µM
Malme-3M; read-out: pTGI (converted)
  TGI: 9.77 µM
M14 [1]; read-out: GI50
  GI50: 4.33 µM
M14 [1]; [5]
  CC50: 93.8 µM
M14 [1]; read-out: TGI
  TGI: 18.5 µM
M14 [1]; read-out: pGI50 (converted)
  GI50: 4.37 µM
M14 [1]; [6]
  CC50: 93.3 µM
M14 [1]; read-out: pTGI (converted)
  TGI: 18.6 µM
SF-295; read-out: GI50
  GI50: 3.84 µM
SF-295; read-out: LC50
  LC50: > 100 µM
SF-295; read-out: TGI
  TGI: 31.8 µM
SF-295; read-out: pGI50 (converted)
  GI50: 3.8 µM
SF-295; read-out: pLC50 (converted)
  LC50: > 100 µM
SF-295; read-out: pTGI (converted)
  TGI: 31.6 µM
SNB-75; read-out: GI50
  GI50: 2.43 µM
SNB-75; [5]
  CC50: > 100 µM
SNB-75; read-out: TGI
  TGI: 34.1 µM
SNB-75; read-out: pGI50 (converted)
  GI50: 2.45 µM
SNB-75; [6]
  CC50: > 100 µM
SNB-75; read-out: pTGI (converted)
  TGI: 33.9 µM
OVCAR-5 [2]; read-out: GI50
  GI50: 5.24 µM
OVCAR-5 [2]; [5]
  CC50: > 100 µM
OVCAR-5 [2]; read-out: TGI
  TGI: 25.2 µM
OVCAR-5 [2]; read-out: pGI50 (converted)
  GI50: 5.25 µM
OVCAR-5 [2]; [6]
  CC50: > 100 µM
OVCAR-5 [2]; read-out: pTGI (converted)
  TGI: 25.1 µM
OVCAR-8; read-out: GI50
  GI50: 4.01 µM
OVCAR-8; [5]
  CC50: > 100 µM
OVCAR-8; read-out: TGI
  TGI: 40.1 µM
OVCAR-8; read-out: pGI50 (converted)
  GI50: 3.98 µM
OVCAR-8; [6]
  CC50: > 100 µM
OVCAR-8; read-out: pTGI (converted)
  TGI: 39.8 µM
SK-OV-3; read-out: GI50
  GI50: 6.88 µM
SK-OV-3; [5]
  CC50: > 100 µM
SK-OV-3; read-out: TGI
  TGI: > 100 µM
SK-OV-3; read-out: pGI50 (converted)
  GI50: 6.92 µM
SK-OV-3; [6]
  CC50: > 100 µM
SK-OV-3; read-out: pTGI
  TGI: > 100 µM
MDA-MB-468; read-out: GI50
  GI50: 3.35 µM
MDA-MB-468; [5]
  CC50: > 100 µM
MDA-MB-468; read-out: TGI
  TGI: 13.9 µM
MDA-MB-468; read-out: pGI50 (converted)
  GI50: 3.39 µM
MDA-MB-468; [6]
  CC50: > 100 µM
MDA-MB-468; read-out: pTGI (converted)
  TGI: 13.8 µM
A549
  growth at 0.1 µM: 99%
IGROV-1
  growth at 0.1 µM: 100%
OVCAR-3
  growth at 10 µM: 113%
MDA-MB-231
  growth at 10 µM: 106%
HCT-15
  growth at 100 µM: 11%
SNB-19
  growth at 100 µM: 29%
U-251
  growth at 100 µM: 2%
OVCAR-5 [3]
  growth at 100 µM: 29%
MDA-MB-435
  growth at 100 µM: 9%
HCC 2998
  growth at 1000 µM: -91%
SK-MEL-5
  growth at 1000 µM: -99%
UO-31
  growth at 1000 µM: -21%
CCRF-CEM
  growth at 1 µM: 109%
NCI-H460
  growth at 1 µM: 93%
HT-29
  growth at 1 µM: 104%
M14 [4]
  growth at 1 µM: 107%

## CNC(=O)OC[C@H]1O[C@@H](n2cnc3c(NC(=O)Nc4ccccc4)ncnc32)[C@H](O[Si](C)(C)C(C)(C)C)[C@@H]1O[Si](C)(C)C(C)(C)C
SR
  growth at 10 µM: 77.9%
OVCAR-3
  growth at 10 µM: 107%
MDA-MB-231
  growth at 10 µM: 110%
